Reference: patent publication US20250154240A1, “ANTI-HUMAN CXCL1 ANTIBODY” (CHIOME BIOSCIENCE INC., priority 2022, published 2025)

Tests used:
[1] = test system: OCUM-12 gastric cancer cell line; assay: Antitumor activity test, model with OCUM-12 orthotopic transplantation (prevention model); type: in vivo, mouse; settings: orally 100 mg/kg/day, once a day for 5 consecutive days followed by 2-day withdrawal
Experimental: A model with OCUM-12 orthotopic transplantation was prepared to evaluate the above 4 types of candidate antibodies for their in vivo CXCR2 migration inhibitory activity and antitumor activity in a xenograft model with OCUM-12 orthotopic transplantation.
For use as mice, female nude mice (BALB/cAJcl-nu/nu) at 5 to 6 weeks of age were purchased from CLEA Japan, Inc., Japan. For use as human cancer cells, a gastric cancer cell line, OCUM-12, was provided by University Public Corporation Osaka, Japan. […]
On the day following the above transplantation, the mice were randomized into groups (8 or 6 mice per group) and intraperitoneally administered with PBS as a control and with 4 types of candidate antibodies (1A-7H10, 4A-2F7, 5A-5E11 and 028-8-12) and 3 types of non-candidate antibodies (1A-3C6, 1A-2H3 and 4A-5B11) at a dose of 20 mg/kg. […] After 3 weeks had passed from the transplantation, the mice were sacrificed, and the short- and long-axis diameters of tumors formed in their gastric walls were each measured with a caliper. The tumor size was calculated according to the following: 1/2 short-axis diameter (mm)×1/2 long-axis diameter (mm)×3.14. […]
The humanized antibodies were evaluated for their in vivo antitumor activity and CXCR2 migration inhibitory activity in a xenograft model with OCUM-12 orthotopic transplantation. […]

[2] = test system: CXCR2-expressing cells; assay: In vivo migration inhibitory activity test on CXCR2-expressing cells, OCUM-12 orthotopic transplantation (prevention model); design: species or system mouse; settings: navarixin orally 100 mg/kg/day, once a day for 5 consecutive days followed by 2-day withdrawal
Text: The stomachs after measurement of the tumor size in [3-1] above were excised and fixed overnight at room temperature with a 10% neutral buffered formalin solution (Wako Pure Chemical Industries, Ltd., Japan), followed by replacement with PBS. Then, paraffin embedding and section preparation were outsourced to Applied Medical Research Laboratory, Japan. The prepared gastric tumor sections were immunohistologically stained with an anti-CXCR2 antibody to evaluate in vivo CXCR2 cell migration inhibitory activity. The sections were deparaffinized and rehydrated, and then treated to inactivate endogenous peroxidase. After antigen activation treatment, the sections were blocked with PBS containing 2% skimmed milk and 0.1% Tween-20, and reacted overnight at 4° C. with an anti-CXCR2 antibody (Biorbyt) as a primary antibody, which had been diluted to 0.3 μg/mL with the blocking solution. […]
Navarixin is among small molecular compounds that act on CXCR2 and inhibit CXCL1-CXCR2 signaling. […] Then, using a model with OCUM-12 orthotopic transplantation, the migration inhibition of CXCR2-expressing cells and antitumor activity were evaluated in vivo for Navarixin. […]
The dose-response relationship between antibody dose and in vivo antitumor activity or CXCR2 migration inhibitory activity was evaluated in a xenograft prevention model with OCUM-12 orthotopic transplantation. […]

[3] = test system: CXCR2-expressing cells; settings: known; cited from earlier work

Q: What does the source list for CC[C@@H](Nc1c(Nc2cccc(C(=O)N(C)C)c2O)c(=O)c1=O)c1ccc(C)o1 [Navarixin, reference compound]?
A: Antitumor activity [1]: no antitumor activity was observed; Migration of CXCR2-expressing cells in vivo [2]: significantly inhibit the migration of CXCR2-expressing cells; Migration of CXCR2-expressing cells in vitro [3]: known to inhibit the migration of CXCR2-expressing cells in vitro
